Laboratory results published in US20240293416A1, “TREATMENT OF LIVER DISORDERS WITH A THR-ß AGONIST” (Terns Pharmaceuticals, Inc., priority 2021, published 2024).
Values joined by “and” are separate entries in the source; they are usually repeats but may differ in a detail not shown here. Equal entries are not always repeated.

How the values were obtained:
[1] = system: biopsy-confirmed DIO-NASH mice; experiment: DIO-GAN NASH mice: body weight, organ weight, body composition; type: in vivo, C57BL/6JRj mice; conditions: doses per Table 16
Source text: (§1) C57BL/6JRj male mice (n=138) were fed the Gubra Amylin NASH (GAN) diet (40% fat, 22% fructose, 2% cholesterol [D09100310, Research Diets]) or lean chow diet for 35 weeks before treatment start. Prior to treatment all animals underwent liver biopsy for histological confirmation (steatosis score ≥2 and fibrosis stage ≥1) and stratification using the nonalcoholic fatty liver disease (NAFLD) activity scoring (NAS) and fibrosis staging system. The diet-induced obese mice on GAN diet (DIO-GAN) were randomized to 8 treatment groups (Table 16) based on percent-area of picrosirius red (PSR) staining. […] Vehicle-dosed lean chow-fed controls served as healthy controls (n=10). Mice were maintained on their respective diets (GAN or lean chow) for the duration of the study. Within-subject comparisons (pre-vs. post-treatment) were performed for liver biopsy histopathological scores. Terminal quantitative endpoints included plasma/liver biochemistry, liver histomorphometry, and liver transcriptomic analysis by RNAseq.
The diet-induced obese, Gubra Amylin NASH model (DIO-GAN) recapitulates many of the histopathological features of human NASH (Hansen 2020). […] To induce NASH disease, C57BL/6JRj mice were maintained a on diet high in fat, cholesterol, and fructose (GAN diet) for >35 weeks. Prior to therapeutic intervention, mice were biopsied to assess NASH disease and fibrosis severity; mice with a steatosis score <2 and fibrosis stage <1 were excluded from the study. DIO-GAN mice were then randomized into 8 treatment groups (n=16 per group) based on the percent fractional area of Picrosirius red (PSR) staining of the pre-treatment biopsy as well as body fat tissue mass determined by whole body Echo-magnetic resonance imaging (EchoMRI). […] DIO-GAN mice administered vehicle by oral gavage once daily served as a control. Mice were treated for a total of 12 weeks and were maintained on GAN diet throughout the study. Lean mice (n=10), maintained on normal chow diet throughout the study served as healthy controls.
Body composition was determined at baseline (Week-1) and Week 11 of the study by whole body EchoMRI to determine the relative levels lean and fat tissue as a percentage of body weight. Baseline levels of lean and fat tissue were well balanced across treatment groups (FIGS. 33A and 33B).

[2] = system: biopsy-confirmed DIO-NASH mice; experiment: DIO-GAN NASH mice: liver enzymes, plasma and liver lipids, CK18 M30; type: in vivo, C57BL/6JRj mice; conditions: for plasma triglycerides (TG): end of study
Source text: as §1
Terminal blood was harvested by cardiac puncture from mice anesthetized with isoflurane (2-3%), mixed with anticoagulant, and placed at 4 C prior to centrifugation at 3000×g for 10 minutes. Plasma supernatants were transferred to new tubes and immediately frozen on dry ice and stored at −80 C. Alanine transaminase (ALT), Aspartate transaminase (AST), Alkaline phosphatase (ALP), Triglycerides (TGs), Total Cholesterol (TC), High-density lipoprotein (HDL-c), and Low-density lipoprotein (LDL-c) were measured using commercial kits (Roche Diagnostics) on the Cobas c 501 autoanalyzer according to manufacturer's instructions. Cytokeratin 18 M30 (CK18 M30) was measured from plasma using a commercial ELISA kit (Cusabio) according to the manufacturer's instructions.
Liver samples were homogenized and TGs and TC was extracted in 5% NP-40 by heating (2×) at 90 C. Samples were centrifuged and the TG and TC content was measured in the supernatant using commercial kits (Roche Diagnostics) on the Cobas c 501 autoanalyzer, according to the manufacturer's instructions.

[3] = system: biopsy-confirmed DIO-NASH mice; experiment: DIO-GAN NASH mice: liver histology (NAS, fibrosis, IHC); type: in vivo, C57BL/6JRj mice
Source text: as §1
Formalin-fixed paraffin-embedded (FFPE) liver biopsies were prepared by placing liver samples into 10% neutral buffered formalin for ˜24 hours and then transferred to 70% ethanol prior to storage at 4 C. FFPE were placed in the Histokinette to infiltrate prior to embedding in blocks. Biopsy tissues were then cut at 3 μm using a microtome and sections were mounted on slides. Liver sections were stained with Hematoxylin and Eosin (H&E) to assess steatosis, inflammation, and ballooning, and PSR to assess fibrosis. Additionally, slides were processed to detect type I collagen (Col1a1), galectin-3 (Gal-3), and smooth muscle actin (α-SMA) protein expression by immunohistochemistry (IHC). For H&E staining, slides were incubated in Mayer's Hematoxylin (Dako), washed with tap water, stained in Eosin Y solution (Sigma-Aldrich), dehydrated, and coverslipped. For PSR, slides were incubated in Weigert's iron hematoxylin (Sigma-Aldrich), washed in tap water, stained in Picro-sirius red (Sigma-Aldrich), and washed twice in acidified water. Excess water was removed by shaking the slides and the slides were then dehydrated with ethanol, cleared in xylene, and cover-slipped. The NAS and fibrosis stage were scored as described previously (Kleiner et al. 2005). NAS represents the unweighted sum of steatosis, inflammation, and ballooning scores and ranges for 0-8 (Table 17); fibrosis stage ranges from 0 (no fibrosis) to 4 (cirrhosis). For detection of Col1a1, Gal-3 and α-SMA, IHC was performed by standard procedures. Briefly, after antigen retrieval and blocking of endogenous peroxidase activity, slides were incubated with primary antibody (Col1a1: Southern Biotech, Cat. 1310-01; Gal-3: Biolegend, Cat. 125402; α-SMA: Abcam Cat. Ab124964). Primary antibody was detected using a polymeric HRP-linker antibody conjugate. Primary antibody was visualized with DAB as chromogen. Finally, sections were counterstained in hematoxylin and cover-slipped.
The NAFLD Activity Score (NAS) was used to assess the histological effects of treatment. NAS is defined as the unweighted sum of steatosis, inflammation, and ballooning histological scores and can range from 0-8. NAS was determined for each animal before (baseline) and after 12-weeks of treatment at the end of study. NAS was well balanced across treatment groups with an NAS range of 5-6 at baseline in most mice (FIG. 39A). […] In addition, the magnitude of NAS improvement was greater in the combination treatment groups.

[4] = Food effect on PK performance in beagle dogs; type: in vivo; conditions: 10 mg capsule, 5% SLS; fasted vs high fat fed dogs, n=3 per group
Protocol: To determine the food effect on PK performance, beagle dogs were divided into two groups (n=3 per group). For the fasted group, dogs were fasted overnight through 4-hours post dosing. For the fed group, dogs were fed high fat food 30 minutes prior to administration.

[5] = PO QD 12 weeks, Compound 2 10 mg/kg alone or plus Compound 1 0.3/2/10 mg/kg (Combo Low/Med/High)
[6] = PO QD 12 weeks, Compound 2 10 mg/kg alone or plus Compound 1 0.3/2/10 mg/kg (Combo-low/med/high)
[7] = PO QD 12 weeks, Compound 1-low, 0.3 mg/kg
[8] = PO QD 12 weeks, Compound 1-med, 2 mg/kg
[9] = PO QD 12 weeks, Compound 1 Low, 0.3 mg/kg
[10] = PO QD 12 weeks, Compound 1 Med, 2 mg/kg

In the case of `Cn1cc(C(=O)O)c2ccc(C3CCC(OCc4c(-c5c(Cl)cccc5Cl)noc4C4CC4)CC3)cc21` (centres unmarked) [Compound 2], the “body weight at the end of study vs DIO-GAN vehicle control” value ([1]; PO QD 12 weeks) is reported as “significantly lower”, the “body weight during the study” value ([1]; PO QD 12 weeks) is reported as “decreased body weight” and the “fat tissue (% BW, EchoMRI)” value ([1]; Week 11) is reported as “reduced levels of fat tissue”. For the same molecule, the “relative lean tissue mass (EchoMRI)” value ([1]; Week 11) was “significant increases”, the “plasma triglycerides (TG)” value ([2]; Compound 2 10 mg/kg and combinations) was “significantly reduced” and the “Histological Steatosis Score: No change, % of mice” value [3, 5] was 18.75%. For the same molecule, the “Liver Fibrosis stage: Improving, % of mice” value [3, 5] was 6.25%, the “Liver Fibrosis stage: No change, % of mice” value [3, 5] was 56.25% and the “Liver Fibrosis stage: Worsening, % of mice” value [3, 5] was 37.5%. The “Lobular Inflammation: Improving, % of mice” value [3, 5] was 0%, the “Lobular Inflammation: No change, % of mice” value [3, 5] was 68.75% and the “Lobular Inflammation: Worsening, % of mice” value [3, 5] was 31.25%. The “Steatosis Score: Improving 1-pt, % of mice” value [3, 5] was 81.25%, the “Steatosis Score: Improving Total, % of mice” value [3, 5] was 81% and 81.25% and the “Steatosis Score: Improving ≥2-pt, % of mice” value [3, 5] was 0%. The “NAFLD Activity Score (NAS): No change, % of mice” value [3, 6] was 43.7%, the “NAS: Improving 1-pt, % of mice” value [3, 6] was 56.25% and the “NAS: Improving Total (≥1-pt), % of mice” value [3, 6] was 56% and 56.25%. The “NAS: Improving ≥2-pt, % of mice” value [3, 6] was 0%, the “NAS: Worsening ≥1-pt, % of mice” value [3, 6] was 0% and the “α-SMA (IHC)” value ([3]; end of study, Compound 2 10 mg/kg, combinations per Table 16) was “Numeric reductions”. For the same molecule, the “Gal-3 expression in the liver (IHC) relative to DIO-GAN vehicle control” value ([3]; end of study, doses per Table 16) was “lower levels of Gal-3 expression”.

With `N#Cc1nn(-c2cc(Cl)c(Oc3n[nH]c(=O)c4ccccc34)c(Cl)c2)c(=O)[nH]c1=O` [Compound 1, 2-(3,5-dichloro-4-((4-oxo-3,4-dihydrophthalazin-1-yl)oxy)phenyl)-3,5-dioxo-2,3,4,5-tetrahydro-1,2,4-triazine-6-nitrile] the “food effect on Tmax” value [4] was “delayed”, the “food effect on plasma exposure” value [4] was “did not have an impact on the plasma exposure” and the “plasma triglycerides (TG)” value ([2]; Compound 1-high, 10 mg/kg) was “significantly reduced”. For the same molecule, the “ALT levels relative to DIO-GAN vehicle control” value ([2]; single agent Compound 1 low, med, and high (0.3, 2, 10 mg/kg)) was “significantly lowered”, the “NAFLD Activity Score (NAS): No change, % of mice” value [3, 7] was 56.25% and the “NAS: Improving 1-pt, % of mice” value [3, 7] was 31.25%. The “NAS: Improving Total (≥1-pt), % of mice” value [3, 7] was 31% and 31.25%, the “NAS: Improving ≥2-pt, % of mice” value [3, 7] was 0% and the “NAS: Worsening ≥1-pt, % of mice” value [3, 7] was 12.5%. The “NAS: Improving 1-pt, % of mice” value [3, 8] was 20%, the “NAS: Improving Total (≥1-pt), % of mice” value [3, 8] was 27% and the “NAS: Improving ≥2-pt, % of mice” value [3, 8] was 7% and 6.7%. The “NAS: Worsening ≥1-pt, % of mice” value [3, 8] was 0%, the “Histological Steatosis Score: No change, % of mice” value [3, 9] was 68.75% and the “Liver Fibrosis stage: Improving, % of mice” value [3, 9] was 6.25%. The “Liver Fibrosis stage: No change, % of mice” value [3, 9] was 62.5%, the “Lobular Inflammation: Improving, % of mice” value [3, 9] was 6.25% and the “Lobular Inflammation: Worsening, % of mice” value [3, 9] was 25%. The “Steatosis Score: Improving 1-pt, % of mice” value [3, 9] was 25%, the “Steatosis Score: Improving Total, % of mice” value [3, 9] was 31% and the “Steatosis Score: Improving ≥2-pt, % of mice” value [3, 9] was 6.25%. For the same molecule, the “Liver Fibrosis stage: No change, % of mice” value [3, 10] was 60%, the “Lobular Inflammation: Improving, % of mice” value [3, 10] was 6.7% and the “Lobular Inflammation: Worsening, % of mice” value [3, 10] was 20%. The “Steatosis Score: Improving 1-pt, % of mice” value [3, 10] was 40%, the “Steatosis Score: Improving Total, % of mice” value [3, 10] was 47% and the “Steatosis Score: Improving ≥2-pt, % of mice” value [3, 10] was 6.7%. The “α-SMA (IHC)” value ([3]; end of study, Compound 1-low and Compound 1-med (0.3 and 2 mg/kg)) was “Numeric reductions”.
